Results as given in patent publication US20060063785A1, “Substituted pyrazolo[1,5-a] pyrimidines and process for making same” (priority 2004, published 2006).

Experiments:
[1] = system: LoVo Colon cell line; assay: Cytotoxicity assay using LoVo colon cell line (SRB, IC50); type: cell-based; conditions: Cellular activity in LoVo cell; 4 days incubation, SRB assay; read-out: Inhibition of LoVo
Method: Cytotoxicity Assay Using LoVo Colon Cell Line: • 1. LoVo Colon cell lines was cultured in RPMI 1640 medium (Gibco/Invitrogen Life Sciences) supplemented with 10% fetal bovine serum (FBS, Gibco) and 50 μg/ml gentamicin (Gibco). Cells were maintained at 37° C. under 7% CO2. • 2. Cells were seeded in 96-well microtiter plates (Corning/Costar) in a volume of 0.15 ml of growth medium (4000 cells/well). Plates were incubated at 37° C. overnight (18-24 hours). • 3. Serial dilutions of the test agent were added to each well. Dilutions were prepared in growth medium. One of two dose ranges was used: 5 pM to 20 μM or […] to 10 μg/ml. Cells were incubated with the test compounds for 4 days at 37° C. • 4. Surviving cells were processed using the SRB asay, as described above.
5. The drug concentration that inhibits cell proliferation by 50% relative to untreated controls (IC50) was determined from cytotoxicity curves using the LSW Toolbox graphing application.

[2] = system: 80S14 (p21-deficient) cells; assay: Determination of selectivity of compounds for p21-/- cells: IC50 in 80S14 cells (SRB); type: cell-based, human; conditions: Cellular activity in 80S14 (p21-deficient) cells, SRB; class symbols; read-out: IC50 for 80S14
Method: • 1. 80S14 (p21-deficient) cells were cultured in RPMI 1640 medium (Gibco/Invitrogen Life technologies) supplemented with 10% fetal bovine serum (FBS, Gibco) and 10 μg/ml gentamycin (Gibco). Cells were maintained at 37° C. under 7% CO2. • 2. Cells were plated at 6×10^4/ml (0.2 ml/well; 12,000 cells/well) in 96-well microtiter plates (Falcon or Corning/Costar) and incubated at 37° C. overnight (18-24 hours). • 3. 2-5 μl of the test agent-[200 μg/ml stock in 20% DMSO/20 mM HEPES, pH 7.5 (Gibco)] was added to each well to achieve a final concentration of 2-5 μg/ml. Cells were incubated with the test compounds for 5 days at 37° C. • 4. Surviving cells were fixed with 50 μl 50% trichloroacetic acid (Sigma; 10% final concentration) for 1 hour at 4° C. • 5. Plates were rinsed twice with water (0.3 ml per wash using MRD8 robot), and allowed to dry. • 6. Sulforhodamine B (SRB) (Sigma; 0.4% in 1% acetic acid, 50 μl per well; MRD8 robot) was added and plates kept at room temperature for 10 minutes. • 7. Excess dye was removed by washing with 1% acetic acid (3 times, 0.3 ml per wash; MRD8 robot) and allowed to dry. • 8. The dye was solubilized in Tris base (Sigma; 10 mM, 150 μl per well). Plates were kept at room temperature for 30 minutes to allow the dye to diffuse. • 9. Absorbance was measured at 540 nm. • 10. The percentage of cells surviving drug treatment relative to control wells (no drug) was determined. • 11. The difference in % cell survival between the two cell lines was calculated. • 12. Compounds producing a difference score of >50 were considered to be selective for the p21-deficient cells and were evaluated further. Determination of Selectivity of Compounds for p21−/− Cells: • 1. 80S14 cells were cultured as described above. • 2. Cells were seeded in 96-well microtiter plates at 12,000 cells/well (either 0.15 ml/well of 8×10^4 cells/ml suspension, or 0.2 ml/well of 6×10^4 cells/ml suspension). Plates were incubated at 37° C. overnight (18-24 hours). • 3. Serial dilutions of the test agent were added to each well. Dilutions were prepared either in 40% DMSO/20% methanol/20 mM HEPES, pH 7.5 (Gibco) or directly in growth medium. One of two dose ranges were used: 5 pM to 50 μM or 170 pg/ml to 10 μg/ml. Cells were incubated with the test compounds for 5 days at 37° C. • 4. Surviving cells were fixed with 50 μl 50% trichloroacetic acid (Sigma; 10% final concentration) for 1 hour at 4° C. • 5. Plates were rinsed extensively in water, and allowed to dry. • 6. Sulforhodamine B (Sigma; 0.4% in 1% acetic acid, 70 μl per well) was added and plates kept at room temperature for 10 minutes. • 7. Excess dye was removed by washing 5 times with 1% acetic acid and plates were allowed to dry. • 8. The dye was solubilized in Tris base (Sigma; 10 mM, 150 μl per well). Plates were placed on a titer plate shaker (Lab Line Instruments) for 5 minutes to allow the dye to diffuse. • 9. Absorbance was measured at 560 nm.
10. The drug concentration which inhibits cell proliferation by 50% relative to untreated controls (IC50) was determined from cytotoxicity curves.

Row | Compound | melting point [°C] | IC50 [1] [µM] | IC50 [2] [µM]
1 | O=C(c1ccco1)c1cnn2c(-c3cccc(-n4cccc4)c3)ccnc12 [Example 186, 2-Furanyl[7-[3-(1H-pyrrol-1-yl)phenyl]pyrazolo[1,5-a]pyrimidin-3-yl]-methanone] | 204 to 206 | – | –
2 | O=C(c1cccs1)c1cnn2c(Cl)ccnc12 [Example 284, (7-Chloropyrazolo[1,5-a]pyrimidin-3-yl)(thien-2-yl)methanone] | 148 to 150 | – | –
3 | O=C(Nc1cccc(-c2ccnc3c(C(=O)c4cccs4)cnn23)c1)OCCCN1CCS(=O)(=O)CC1 [Example 309, 3-(1,1-Dioxidothiomorpholin-4-yl)propyl 3-[3-(thien-2-ylcarbonyl)pyrazolo[1,5-a]pyrimidin-7-yl]phenylcarbamate] | 148 to 159 | – | –
4 | (7-{3-[1-(Pyridin-2-ylmethyl)-1H-pyrazol-3-yl]phenyl}pyrazolo[1,5-a]pyrimidin-3-yl)(thien-2-yl)methanone [Example 406] | – | < 0.1 | < 1
5 | (7-{3-[2-(2-Hydroxyethyl)-2H-tetraazol-5-yl]phenyl}pyrazolo[1,5-a]pyrimidin-3-yl)(thien-2-yl)methanone [Example 402] | – | 0.1 to 1 | < 1
6 | (7-{3-[2-(Pyridin-2-ylmethyl)-2H-tetraazol-5-yl]phenyl}pyrazolo[1,5-a]pyriridin-3-yl)(thien-2-yl)methanone [Example 397] | – | 0.1 to 1 | < 1
7 | tert-Butyl 4-[2-oxo-2-({3-[3-(thien-2-ylcarbonyl)pyrazolo[1.5-a]pyrimidin-7-yl]phenyl}amino)ethyl]piperidine-1-carboxylate [Example 286] | – | < 0.1 | < 1
8 | {7-[3-(1-Ethyl-1H-pyrazol-3-yl)phenyl]pyrazolo[1,5-a]pyrimidin-3-yl}(thien-2-yl)methanone [Example 407] | – | 0.1 to 1 | 1 to 10
9 | {7-[3-(1H-Pyrazol-3-yl)phenyl]pyrazolo[1,5-a]pyrimidin-3-yl}(thien-2-yl)methanone [Example 403] | – | < 0.1 | < 1

The next lines start with results.

Row | melting point [°C] | Compound | IC50 [1] [µM] | IC50 [2] [µM]
10 | 158 to 160 | CCCCNC(=O)Nc1cccc(-c2ccnc3c(C(=O)c4cccs4)cnn23)c1 [Example 6, N-butyl-N′-{3-[3-(thien-2-ylcarbonyl)pyrazolo [1,5-a]pyrimidin-7-yl]phenyl}urea] | – | –
11 | 212 to 215 | O=C(Nc1cccc(-c2ccnc3c(C(=O)c4cccs4)cnn23)c1)c1ccncc1 [Example 201, N-{3-[3-(2-Thienylcarbonyl)pyrazolo[1,5-a]pyrimidin-7-yl]phenyl}isonicotinamide] | – | –
12 | 190 to 191 | O=C(Nc1cccc(-c2ccnc3c(C(=O)c4cccs4)cnn23)c1)c1ccccc1F [Example 254, 2-Fluoro-N-{3-[3-(thien-2-ylcarbonyl)pyrazolo[1,5-a]pyrimidin-7-yl]phenyl}benzamide] | – | –
13 | 124 to 128 | O=C(c1cccs1)c1cnn2c(-c3cccc(NCc4ccco4)c3)ccnc12 [Example 263, (7-{3-[(2-Furylmethyl)amino]phenyl}pyrazolo[1,5-a]pyrimidin-3-yl)(thien-2-yl)methanone] | – | –
14 | 128 to 131 | COc1ccccc1/C=C/CNc1cccc(-c2ccnc3c(C(=O)c4cccs4)cnn23)c1 [Example 288, [7-(3-{[(2E)-3-(2-Methoxyphenyl)prop-2-enyl]amino}phenyl)pyrazolo[1,5-a]pyrimidin-3-yl](thien-2-yl)methanone] | – | –
15 | > 200 | CC(C)NC(=N)Nc1cccc(-c2ccnc3c(C(=O)c4cccs4)cnn23)c1 [Example 301, N-Isopropyl-N′-{3-[3-(thien-2-ylcarbonyl)pyrazolo[1,5-a]pyrimidin-7-yl]phenyl}guanidine] | – | –
16 | 240 to 241 | CC(C)NC(=NC#N)Nc1cccc(-c2ccnc3c(C(=O)c4cccs4)cnn23)c1 [Example 304, N″-Cyano-N-isopropyl-N′-{3-[3-(thien-2-ylcarbonyl)pyrazolo[1,5-a]pyrimidin-7-yl]phenyl}guanidine] | – | –
